Assay results as given in patent publication US11629171B2, “Beta-hairpin peptidomimetics” (POLYPHOR AG, priority 2017, dated 2023).
Values after ≈ are worked out from the molar mass of the structure shown. Where a SMILES comes first, the peptide text is derived from it. Bridges are numbered along the chain shown (N, C = ends). Roman numbers before positions name the chains, in order. [ ]: non-standard residue; d: D form. The star is where a group is joined. Heptanoyl(6-Me) = CC(C)CCCCC(=O)*; Tle = CC(C)(C)[C@H](N)C(=O)O; dDab = NCC[C@@H](N)C(=O)O; hSer = N[C@@H](CCO)C(=O)O; Nle = CCCC[C@H](N)C(=O)O; Orn = NCCC[C@H](N)C(=O)O; Dab = NCC[C@H](N)C(=O)O; Dap = NC[C@H](N)C(=O)O

Experiments:
Assay type in all cases: cell-based
[1] = system: Klebsiella pneumoniae SSI #3010; details: SSI #3010
Procedure, shortened: (§1)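 Two-fold peptide dilutions in polysorbate 80-containing (0.002% final) cation-adjusted Mueller-Hinton II broth were inoculated with about 10^6 CFU/mL. The MIC was taken as the lowest concentration, in μg/mL, preventing visible growth at 18-20 hours and 35° C.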

[2] = system: Acinetobacter baumannii 872842; details: 872842
Procedure, shortened: as §1

[3] = system: Acinetobacter baumannii DSM 30008; details: DSM 30008
Procedure, shortened: as §1

[4] = system: Escherichia coli ATCC 25922; details: ATCC 25922
Procedure, shortened: as §1

[5] = system: Enterobacter cloacae 848840; details: 848840
Procedure, shortened: as §1

[6] = system: Klebsiella pneumoniae 968733; details: 968733
Procedure, shortened: as §1

[7] = system: Pseudomonas aeruginosa ATCC 27853; details: ATCC 27853
Procedure, shortened: as §1

Escherichia coli 926415 = details: 926415
Procedure, shortened: as §1

[8] = system: human red blood cells (hRBC); test: Hemolysis; details: red cells of human, 1 h, 200
Procedure, shortened: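 First, fresh human erythrocytes are washed in PBS; next, they are incubated at 20% (v/v) with compound at 200 μg/mL for 1 h at 37° C. Finally, centrifuged supernatants are diluted and OD540 is taken relative to the Triton X-100 lysis control.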

Row | MIC [1] [µg/mL] | MIC [2] [µg/mL] | MIC [3] [µg/mL] | MIC [4] [µg/mL] | MIC [5] [µg/mL] | MIC [6] [µg/mL] | MIC [7] [µg/mL] | MIC (Escherichia coli 926415) [µg/mL] | Compound | Hemolysis at 200 μg/mL [8] [%]
1 | 0.125 (≈ 0.0536 µM) | 0.0625 (≈ 0.0268 µM) | 0.0625 (≈ 0.0268 µM) | 0.0625 (≈ 0.0268 µM) | 0.125 (≈ 0.0536 µM) | 0.25 (≈ 0.107 µM) | 0.25 (≈ 0.107 µM) | 0.125 (≈ 0.0536 µM) | CC(=O)N[C@@H](CC(C)C)C(=O)N[C@H]1CCCNC(=O)[C@@H]([C@H](C)O)NC(=O)[C@H](C(C)(C)C)NC(=O)[C@H](CO)NC(=O)[C@H](Cc2c[nH]c3ccccc23)NC(=O)[C@H](CCO)NC(=O)[C@@H](CCN)NC(=O)[C@H](CCC(=O)N[C@@H](CCN)C(=O)N[C@H](C(=O)N[C@@H](CN)C(=O)N[C@H]2CCNC(=O)[C@H]([C@@H](C)O)NC(=O)[C@H](CCN)NC(=O)[C@H](CCN)NC(=O)[C@H](CC(C)C)NC(=O)[C@@H](CC(C)C)NC(=O)[C@H](CCN)NC2=O)[C@@H](C)O)NC(=O)[C@H](CN)NC(=O)[C@H](Cc2ccc(O)cc2)NC1=O [Ex. 33] (I: Ac-L[Orn]Y[Dap]E[dDab][hSer]WS[Tle][dT] / II: [Dab]T[Dap][Dab][Dab][dL]L[Dab][Dab]T; lactam I:2-I:C, II:4-II:C; amide I:5-II:N) | <1
2 | 0.125 (≈ 0.0536 µM) | 0.0625 (≈ 0.0268 µM) | 0.03125 (≈ 0.0134 µM) | 0.0625 (≈ 0.0268 µM) | 0.125 (≈ 0.0536 µM) | 0.125 (≈ 0.0536 µM) | 0.25 (≈ 0.107 µM) | 0.0625 (≈ 0.0268 µM) | CCCC[C@H](NC(C)=O)C(=O)N[C@H]1CCCNC(=O)[C@@H]([C@H](C)O)NC(=O)[C@H](C(C)(C)C)NC(=O)[C@H](CO)NC(=O)[C@H](Cc2c[nH]c3ccccc23)NC(=O)[C@H](CCO)NC(=O)[C@@H](CCN)NC(=O)[C@H](CCC(=O)N[C@@H](CCN)C(=O)N[C@H](C(=O)N[C@@H](CN)C(=O)N[C@H]2CCNC(=O)[C@H]([C@@H](C)O)NC(=O)[C@H](CCN)NC(=O)[C@H](CCN)NC(=O)[C@H](CC(C)C)NC(=O)[C@@H](CC(C)C)NC(=O)[C@H](CCN)NC2=O)[C@@H](C)O)NC(=O)[C@H](CN)NC(=O)[C@H](Cc2ccc(O)cc2)NC1=O [Ex. 34] (I: Ac-[Nle][Orn]Y[Dap]E[dDab][hSer]WS[Tle][dT] / II: [Dab]T[Dap][Dab][Dab][dL]L[Dab][Dab]T; lactam I:2-I:C, II:4-II:C; amide I:5-II:N) | <1
3 | 0.25 (≈ 0.108 µM) | 0.25 (≈ 0.108 µM) | 0.125 (≈ 0.0542 µM) | 0.125 (≈ 0.0542 µM) | 0.25 (≈ 0.108 µM) | 0.25 (≈ 0.108 µM) | 0.25 (≈ 0.108 µM) | 1 (≈ 0.434 µM) | CC(=O)N[C@H](C(=O)N[C@H]1CCNC(=O)[C@@H]([C@H](C)O)NC(=O)[C@H](C(C)(C)C)NC(=O)[C@H](CO)NC(=O)[C@H](Cc2c[nH]c3ccccc23)NC(=O)[C@H](CCO)NC(=O)[C@@H](CCN)NC(=O)[C@H](CCC(=O)N[C@@H](CCN)C(=O)N[C@H](C(=O)N[C@@H](CN)C(=O)N[C@H]2CCNC(=O)[C@H]([C@@H](C)O)NC(=O)[C@H](CCN)NC(=O)[C@H](CCN)NC(=O)[C@H](CC(C)C)NC(=O)[C@@H](CC(C)C)NC(=O)[C@H](CCN)NC2=O)[C@@H](C)O)NC(=O)[C@H](CN)NC(=O)[C@H](Cc2ccc(O)cc2)NC1=O)C(C)C [Ex. 35] (I: Ac-V[Dab]Y[Dap]E[dDab][hSer]WS[Tle][dT] / II: [Dab]T[Dap][Dab][Dab][dL]L[Dab][Dab]T; lactam I:2-I:C, II:4-II:C; amide I:5-II:N) | <1
4 | 0.125 (≈ 0.0528 µM) | 0.0625 (≈ 0.0264 µM) | 0.0625 (≈ 0.0264 µM) | 0.0625 (≈ 0.0264 µM) | 0.125 (≈ 0.0528 µM) | 0.25 (≈ 0.106 µM) | 0.25 (≈ 0.106 µM) | 0.125 (≈ 0.0528 µM) | CC(=O)N[C@@H](Cc1ccccc1)C(=O)N[C@H]1CCCNC(=O)[C@@H]([C@H](C)O)NC(=O)[C@H](C(C)(C)C)NC(=O)[C@H](CO)NC(=O)[C@H](Cc2c[nH]c3ccccc23)NC(=O)[C@H](CCO)NC(=O)[C@@H](CCN)NC(=O)[C@H](CCC(=O)N[C@@H](CCN)C(=O)N[C@H](C(=O)N[C@@H](CN)C(=O)N[C@H]2CCNC(=O)[C@H]([C@@H](C)O)NC(=O)[C@H](CCN)NC(=O)[C@H](CCN)NC(=O)[C@H](CC(C)C)NC(=O)[C@@H](CC(C)C)NC(=O)[C@H](CCN)NC2=O)[C@@H](C)O)NC(=O)[C@H](CN)NC(=O)[C@H](Cc2ccc(O)cc2)NC1=O [Ex. 36] (I: Ac-F[Orn]Y[Dap]E[dDab][hSer]WS[Tle][dT] / II: [Dab]T[Dap][Dab][Dab][dL]L[Dab][Dab]T; lactam I:2-I:C, II:4-II:C; amide I:5-II:N) | <1
5 | 0.25 (≈ 0.108 µM) | 1 (≈ 0.434 µM) | 0.125 (≈ 0.0542 µM) | 0.25 (≈ 0.108 µM) | 0.25 (≈ 0.108 µM) | 2 (≈ 0.868 µM) | 0.5 (≈ 0.217 µM) | 0.5 (≈ 0.217 µM) | CC(=O)N[C@H](C(=O)N[C@H]1CCCNC(=O)[C@@H]([C@H](C)O)NC(=O)[C@H](C(C)C)NC(=O)[C@H](CO)NC(=O)[C@H](Cc2c[nH]c3ccccc23)NC(=O)[C@H](CCN)NC(=O)[C@@H](CCN)NC(=O)[C@H](CCC(=O)N[C@@H](CCN)C(=O)N[C@H](C(=O)N[C@@H](CN)C(=O)N[C@H]2CCNC(=O)[C@H]([C@@H](C)O)NC(=O)[C@H](CCN)NC(=O)[C@H](CCN)NC(=O)[C@H](CC(C)C)NC(=O)[C@@H](CC(C)C)NC(=O)[C@H](CCN)NC2=O)[C@@H](C)O)NC(=O)[C@H](CN)NC(=O)[C@H](Cc2ccc(O)cc2)NC1=O)C(C)C [Ex. 37] (I: Ac-V[Orn]Y[Dap]E[dDab][Dab]WSV[dT] / II: [Dab]T[Dap][Dab][Dab][dL]L[Dab][Dab]T; lactam I:2-I:C, II:4-II:C; amide I:5-II:N) | 1
6 | 0.5 (≈ 0.198 µM) | 0.5 (≈ 0.198 µM) | 1 (≈ 0.396 µM) | 0.125 (≈ 0.0495 µM) | 0.5 (≈ 0.198 µM) | 0.25 (≈ 0.099 µM) | 0.25 (≈ 0.099 µM) | 1 (≈ 0.396 µM) | CC(C)CCCCC(=O)N[C@H](C(=O)N[C@H]1CSSC[C@@H](C(=O)N[C@@H](CO)C(N)=O)NC(=O)[C@H](C(C)C)NC(=O)[C@H](CCO)NC(=O)[C@H](Cc2c[nH]c3ccccc23)NC(=O)[C@H](CCO)NC(=O)[C@@H](CCN)NC(=O)[C@H](CCC(=O)N[C@@H](CCN)C(=O)N[C@H](C(=O)N[C@@H](CCN)C(=O)N[C@H]2CCNC(=O)[C@H]([C@@H](C)O)NC(=O)[C@H](CCN)NC(=O)[C@H](CCN)NC(=O)[C@H](CC(C)C)NC(=O)[C@@H](CC(C)C)NC(=O)[C@H](CCN)NC2=O)[C@@H](C)O)NC(=O)[C@H](CCN)NC(=O)[C@H](Cc2ccc(O)cc2)NC1=O)C(C)C [Ex. 40] (I: {Heptanoyl(6-Me)}-VCY[Dab]E[dDab][hSer]W[hSer]VCS-NH2 / II: [Dab]T[Dab][Dab][Dab][dL]L[Dab][Dab]T; disulfide I:2-I:11; amide I:5-II:N; lactam II:4-II:C) | 2
7 | 0.125 (≈ 0.0512 µM) | 0.125 (≈ 0.0512 µM) | 0.125 (≈ 0.0512 µM) | 0.0625 (≈ 0.0256 µM) | 0.125 (≈ 0.0512 µM) | 0.25 (≈ 0.102 µM) | 0.125 (≈ 0.0512 µM) | 0.125 (≈ 0.0512 µM) | CC(=O)N[C@H](C(=O)N[C@H]1CSSC[C@@H](C(=O)N[C@@H](CO)C(N)=O)NC(=O)[C@H](C(C)(C)C)NC(=O)[C@H](CO)NC(=O)[C@H](Cc2c[nH]c3ccccc23)NC(=O)[C@H]([C@@H](C)O)NC(=O)[C@@H](CCN)NC(=O)[C@H](CCC(=O)N[C@@H](CCN)C(=O)N[C@H](C(=O)N[C@@H](CCN)C(=O)N[C@H]2CCNC(=O)[C@H]([C@@H](C)O)NC(=O)[C@H](CCN)NC(=O)[C@H](CCN)NC(=O)[C@H](CC(C)C)NC(=O)[C@@H](CC(C)C)NC(=O)[C@H](CCN)NC2=O)[C@@H](C)O)NC(=O)[C@H](CCN)NC(=O)[C@H](Cc2ccc(O)cc2)NC1=O)C(C)C [Ex. 44] (I: Ac-VCY[Dab]E[dDab]TWS[Tle]CS-NH2 / II: [Dab]T[Dab][Dab][Dab][dL]L[Dab][Dab]T; disulfide I:2-I:11; amide I:5-II:N; lactam II:4-II:C) | <1
8 | 0.125 (≈ 0.0515 µM) | 0.25 (≈ 0.103 µM) | 0.0625 (≈ 0.0258 µM) | 0.0625 (≈ 0.0258 µM) | 0.25 (≈ 0.103 µM) | 0.5 (≈ 0.206 µM) | 0.125 (≈ 0.0515 µM) | 0.5 (≈ 0.206 µM) | CC(=O)N[C@H](C(=O)N[C@H]1CSSC[C@@H](C(=O)N[C@@H](CO)C(N)=O)NC(=O)[C@H](C(C)C)NC(=O)[C@H](CO)NC(=O)[C@H](Cc2c[nH]c3ccccc23)NC(=O)[C@H]([C@@H](C)O)NC(=O)[C@@H](CCN)NC(=O)[C@H](CCC(=O)N[C@@H](CCN)C(=O)N[C@H](C(=O)N[C@@H](CCN)C(=O)N[C@H]2CCNC(=O)[C@H]([C@@H](C)O)NC(=O)[C@H](CCN)NC(=O)[C@H](CCN)NC(=O)[C@H](CC(C)C)NC(=O)[C@@H](CC(C)C)NC(=O)[C@H](CCN)NC2=O)[C@@H](C)O)NC(=O)[C@H](CCN)NC(=O)[C@H](Cc2ccc(O)cc2)NC1=O)C(C)C [Ex. 45] (I: Ac-VCY[Dab]E[dDab]TWSVCS-NH2 / II: [Dab]T[Dab][Dab][Dab][dL]L[Dab][Dab]T; disulfide I:2-I:11; amide I:5-II:N; lactam II:4-II:C) | <1
